Our source for the EC50 values is patent US9850227B2 (YUHAN CORPORATION, priority 2011, dated 2017).

Structures can show the parent of a compound that is named as a salt.

The EC50 is the concentration needed to bring the measured effect to its halfway point.

This test deals with T1, human 5-HT4(a) (Homo sapiens, UniProt Q13639).
T1 construct: host or cells: GeneBIAzer HTR4-CRE-bla CHO-K1 cells
T1 sequence (Q13639 1-387 isoform Q13639-2): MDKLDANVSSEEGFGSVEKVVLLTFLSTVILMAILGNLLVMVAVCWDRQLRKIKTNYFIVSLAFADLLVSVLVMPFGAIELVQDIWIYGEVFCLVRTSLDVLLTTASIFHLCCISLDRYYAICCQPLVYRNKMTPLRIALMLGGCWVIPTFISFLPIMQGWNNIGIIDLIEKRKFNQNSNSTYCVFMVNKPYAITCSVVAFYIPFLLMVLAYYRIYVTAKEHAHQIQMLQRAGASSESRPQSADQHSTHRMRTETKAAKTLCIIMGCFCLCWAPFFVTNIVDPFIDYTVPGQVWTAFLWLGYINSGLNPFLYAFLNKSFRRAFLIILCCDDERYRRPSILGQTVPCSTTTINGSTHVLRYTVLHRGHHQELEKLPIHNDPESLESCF
In words: Evaluation of agonistic activity in CHO-K1 cells expressing human 5-HT4(a) (GeneBIAzer HTR4-CRE-bla CHO-K1 cells, beta-lactamase fluorescence ratio, EC50 from 8 concentrations). Type of test: cell-based. The essentials:
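HTR4-CRE-bla CHO-K1 cells (10^4 per well, overnight in 1% FBS medium) exposed to compound for 5 h, then beta-lactamase substrate 2 h in the dark. Fluorescence ratio at 465/535 nm after 410 nm excitation; EC50 by non-linear regression over 8 concentrations.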
With `CCCc1cc(N2CCC[C@@H](NC(=O)CO)C2)nc(Nc2ccc(F)c(C(F)(F)F)c2)n1` [Example 249, (R)—N-(1-{2-[4-fluoro-3-(trifluoromethyl)phenylamino]-6-propylpyrimidin-4-yl}piperidin-3-yl)-2-hydroxyacetamide], the concentration giving a half-maximal response (EC50) was found to be 0.025 nM.

For `CCCc1cc(N2CCC[C@@H](NCC)C2)nc(Nc2ccc(F)c(N)c2)n1` [Example 289, (R)—N^1-[4-(3-ethylaminopiperidin-1-yl)-6-propylpyrimidin-2-yl]-4-fluorobenzene-1,3-diamine], the EC50 is 0.0065 nM.

Consider `CCCc1cc(N2CCCC3CCCCC32)nc(Nc2cnc3ccccc3c2)n1` (centres unmarked) [Example 203, N-[4-(octahydroquinolin-1(2H)-yl)-6-propylpyrimidin-2-yl]quinolin-3-amine], for which the 50% effective concentration (EC50) worked out at 0.14 nM.

Turning to `CCCc1cc(N2CCOCC2)nc(Nc2ccc3cc[nH]c3c2)n1` [Example 77, N-(4-morpholino-6-propylpyrimidin-2-yl)-1H-indol-6-amine], the EC50 is 0.084 nM.

`CCCc1cc(N2CCC[C@@H](N)C2)nc(Nc2ccc(C)c([N+](=O)[O-])c2)n1` [Example 265, (R)-4-(3-aminopiperidin-1-yl)-N-(4-methyl-3-nitrophenyl)-6-propylpyrimidin-2-amine]: the 50% effective concentration (EC50) is 0.049 nM.

In the case of `CCCCc1cc(N2CCC[C@@H](NC)C2)nc(Nc2ccc(C)c(F)c2)n1` [Example 331, (R)-4-butyl-N-(3-fluoro-4-methylphenyl)-6-[3-(methylamino)piperidin-1-yl]pyrimidin-2-amine], the EC50 was found to be 0.218 nM.

`CCCc1cc(N2CCCC3CCCCC32)nc(Nc2cccc(SC)c2)n1` (centres unmarked) [Example 198, N-(3-methylthiophenyl)-4-(octahydroquinolin-1(2H)-yl)-6-propylpyrimidin-2-amine]: the EC50 is 0.4 nM.

As for `CCCc1cc(N2CCC[C@@H](NC(C)=O)C2)nc(Nc2ccc(C)c(C#N)c2)n1` [Example 220, (R)—N-{1-[2-(3-cyano-4-methylphenylamino)-6-propylpyrimidin-4-yl]piperidin-3-yl}acetamide], the concentration for a half-maximal effect (EC50) was determined as 0.0082 nM.

With `CCCc1cc(N2CCC[C@@H](NCC)C2)nc(Nc2cc(N)cc(C#N)c2)n1` [Example 292, (R)-3-amino-5-[4-(3-ethylaminopiperidin-1-yl)-6-propylpyrimidin-2-ylamino]benzonitrile], the EC50 was determined as 0.019 nM.

`CCCCc1cc(N2CCC[C@@H](NCCC(C)C)C2)nc(Nc2ccc(C)c(C#N)c2)n1` [Example 303, (R)-5-({4-butyl-6-[3-(isopentylamino)piperidin-1-yl]pyrimidin-2-yl}amino)-2-methylbenzonitrile]: the EC50 stood at 0.025 nM.

Take `CCCc1cc(N2CCNC[C@H]2C)nc(Nc2ccc(F)c(N)c2)n1` [Example 123, (R)-4-fluoro-N^1-[4-(2-methylpiperazin-1-yl)-6-propylpyrimidin-2-yl]benzene-1,3-diamine]: the 50% effective concentration (EC50) was 0.121 nM.

As for `CCCc1cc(N2CCC[C@H](N)C2)nc(Nc2cccc([N+](=O)[O-])c2)n1` [Example 151, (S)-4-(3-aminopiperidin-1-yl)-N-(3-nitrophenyl)-6-propylpyrimidin-2-amine dihydrochloride], the EC50 stood at 0.361 nM.

Consider `CCCCc1cc(N2CCC[C@@H](N)C2)nc(Nc2ccc(C)c(C)c2)n1` [Example 347, (R)-4-(3-aminopiperidin-1-yl)-6-butyl-N-(3,4-dimethylphenyl)pyrimidin-2-amine], for which the 50% effective concentration (EC50) came out at 0.391 nM.

As for `CCCc1cc(N2CCCCC2CC)nc(Nc2ccc3nc(C(F)(F)F)[nH]c3c2)n1` (centres unmarked) [Example 109, N-[4-(2-ethylpiperidin-1-yl)-6-propylpyrimidin-2-yl]-2-(trifluoromethyl)-1H-benzo[d]imidazol-6-amine], the EC50 is 0.32 nM.

With `CCCc1cc(N2CCCCC2CC)nc(Nc2cnc3ccccc3c2)n1` (centres unmarked) [Example 114, N-[4-(2-ethylpiperidin-1-yl)-6-propylpyrimidin-2-yl]quinolin-3-amine], the EC50 came to 0.31 nM.

Regarding `CCCCc1cc(N2CCC[C@@H](N)C2)nc(Nc2ccc(F)c([N+](=O)[O-])c2)n1` [Example 338, (R)-4-(3-aminopiperidin-1-yl)-6-butyl-N-(4-fluoro-3-nitrophenyl)pyrimidin-2-amine], the EC50 was 0.014 nM.

Take `CCCCc1cc(N2CCC[C@@H](NCC(C)C)C2)nc(Nc2ccc(C)c(C#N)c2)n1` [Example 302, (R)-5-({4-butyl-6-[3-(isobutylamino)piperidin-1-yl]pyrimidin-2-yl}amino)-2-methylbenzonitrile]: the EC50 was 0.019 nM.
